# Source: ChEMBL document CHEMBL1127801, “3-(2-(3-Pyridinyl)thiazolidin-4-oyl)indoles, a novel series of platelet activating factor antagonists” (J Med Chem, 1994)
# Columns and labels:
# [1] = tested on: Rattus norvegicus; assay: In vivo antagonist activity for PAF-Induced cutaneous vascular permeability in the rat; assay type: functional
# [2] = tested on: Mus musculus; assay: In vivo antagonist activity against PAF-Induced paw edema in the mouse; assay type: functional
# [3] = biological target: Platelet-activating factor receptor (Oryctolagus cuniculus); assay: Functional inhibition of PAF-induced platelet degranulation
SMILES,ED50 [1] [mg/kg],ED50 [2] [mg/kg],Kb [3] [nM]
CCS(=O)(=O)n1cc(C(=O)[C@@H]2CSC(c3cccnc3)N2)c2ccc(OCc3ccccc3)cc21 (some centres undefined),0.862,–,–
O=C(O)C(=O)O.O=C(c1c[nH]c2ccccc12)[C@@H]1CSC(c2cccnc2)N1 (some centres undefined),3.65,5.32,–
CN(C)C(=O)n1cc(C(=O)[C@@H]2CSC(c3cccnc3)N2)c2ccccc21 (some centres undefined),1.3,0.979,0.291
CN(C)C(=O)n1cc(C(=O)[C@@H]2CSC(c3cccnc3)N2)c2cccc(OCc3ccccc3)c21 (some centres undefined),–,0.091,–
CN(C)C(=O)n1cc(C(=O)[C@@H]2CSC(c3cccnc3)N2)c2ccc(-c3cccnc3)cc21 (some centres undefined),4.48,–,–
Cc1nnc2n1-c1sc3c(c1C(c1ccccc1Cl)=NC2)CC(C(=O)N1CCOCC1)C3 (centres undefined) [BEPAFANT],0.423,0.459,–
CCOC(=O)C1=C(c2ccc(-n3c(C)nc4cnccc43)cc2)NC(C)=C(C(=O)Nc2ccccn2)C1c1ccccc1Cl (centres undefined),0.232,–,–
CN(C)C(=O)n1cc(C(=O)[C@@H]2CSC(c3cccnc3)N2)c2ccc(F)cc21 (some centres undefined),0.945,–,–
CN(C)C(=O)Cn1cc(C(=O)[C@@H]2CSC(c3cccnc3)N2)c2ccccc21 (some centres undefined),0.384,–,–
O=C(c1cn(C(=O)N2CCOCC2)c2ccccc12)[C@@H]1CSC(c2cccnc2)N1 (some centres undefined),–,2.63,–
CC(C)(C)C(=O)n1cc(C(=O)[C@@H]2CSC(c3cccnc3)N2)c2ccccc21 (some centres undefined),–,15.8,–
O=C(c1ccccc1)c1cccc(NC(=O)[C@@H]2CSC(c3cccnc3)N2)c1 (some centres undefined),12.9,1.73,4.14
CN(C)C(=O)n1cc(C(=O)[C@@H]2CSC(c3cccnc3)N2)c2ccc(-c3ccc(F)cc3)cc21 (some centres undefined),0.76,–,–
Cc1nnc2n1C1=C(C(c3ccccc3Cl)=NC2C)C2CCN(C(=O)C3CC3)CC2S1 (centres undefined),0.15,1.44,–
O=C(c1c[nH]c2cc(F)ccc12)[C@@H]1CSC(c2cccnc2)N1 (some centres undefined),2.69,–,–
Cl.Cl.O=C(C1CSC(c2cccnc2)N1)n1ccc2c(Cl)cccc21 (centres undefined),15,–,–
O=C(c1cn(Cc2ccccc2)c2ccccc12)[C@@H]1CSC(c2cccnc2)N1 (some centres undefined),–,–,22.1
CNC(=O)n1cc(C(=O)[C@@H]2CSC(c3cccnc3)N2)c2ccccc21.O=C(O)C(=O)O.O=C(O)C(=O)O (some centres undefined),1.68,–,–
Cc1ccc2c(C(=O)[C@@H]3CSC(c4cccnc4)N3)cn(C(=O)OC(C)(C)C)c2c1 (some centres undefined),5.22,1.19,–
CCCOc1c(OC)cc([C@@H]2CC[C@@H](c3cc(OC)c(OC)c(OC)c3)O2)cc1S(=O)(=O)CCO,1.89,11.5,–
CN(C)C(=O)n1cc(C(=O)[C@@H]2CSC(c3cccnc3)N2)c2ccc(OCc3ccc(F)cc3)cc21 (some centres undefined),0.355,–,–
CN(C)C(=O)n1cc(C(=O)[C@@H]2CSC(c3cccnc3)N2)c2ccc(Oc3ccc(F)cc3)cc21 (some centres undefined),0.108,–,–
CC(C)(C)OC(=O)n1cc(C(=O)[C@@H]2CSC(c3cccnc3)N2)c2ccc(OCc3ccccc3)cc21 (some centres undefined),0.429,1.3,1.19
CN(C)C(=O)n1cc(C(=O)[C@@H]2CSC(c3cccnc3)N2)c2ccc(Cl)cc21 (some centres undefined),1.6,–,–
CC(C)(C)OC(=O)n1cc(C(=O)[C@@H]2CSC(c3cccnc3)N2)c2ccccc21 (some centres undefined),4.96,0.372,0.111
O=C(c1cn(C(=O)c2ccc(Cl)cc2)c2ccccc12)[C@@H]1CSC(c2cccnc2)N1 (some centres undefined),3.19,–,–

SMILES,ED50 [1] [mg/kg],ED50 [2] [mg/kg],Kb [3] [nM]
CN(C)C(=O)n1cc(C(=O)[C@@H]2CSC(c3cccnc3)N2)c2ccc(C#Cc3ccccc3)cc21 (some centres undefined),0.885,–,–
COc1cc(C(=O)c2cccc(NC(=O)[C@@H]3CSC(c4cccnc4)N3)c2)cc(OC)c1OC (some centres undefined),2.06,0.476,0.415
Cc1[nH]c2ccccc2c1C(=O)[C@@H]1CSC(c2cccnc2)N1 (some centres undefined),–,–,1.99
O=C(c1cn(C(=O)N2CCOCC2)c2cc(OCc3ccccc3)ccc12)[C@@H]1CSC(c2cccnc2)N1 (some centres undefined),0.762,3.7,–
O=C([C@@H]1CSC(c2cccnc2)N1)n1ccc2ccc(OCc3ccccc3)cc21 (some centres undefined),–,–,12
O=C(c1c[nH]c2cc(OCc3ccc(F)cc3)ccc12)[C@@H]1CSC(c2cccnc2)N1 (some centres undefined),0.273,–,–
COc1ccc2c(C(=O)[C@@H]3CSC(c4cccnc4)N3)cn(C(=O)OC(C)(C)C)c2c1.O=C(O)C(=O)O (some centres undefined),1.9,–,–
Cc1ccc2c(c1)c(C(=O)[C@@H]1CSC(c3cccnc3)N1)c(C)n2C(=O)OC(C)(C)C.O=C(O)C(=O)O (some centres undefined),9.51,–,–
COc1ccc2c(C(=O)[C@@H]3CSC(c4cccnc4)N3)c[nH]c2c1 (some centres undefined),–,3.7,–
O=C(O)C(=O)O.O=C(c1cn(C(=O)OCc2ccccc2)c2ccccc12)[C@@H]1CSC(c2cccnc2)N1 (some centres undefined),–,1.79,–
CN(C)C(=O)n1cc(C(=O)[C@@H]2CSC(c3cccnc3)N2)c2ccc(OCc3ccccc3)cc21.O=C(O)C(=O)O (some centres undefined),0.53,0.079,–
O=C(c1c[nH]c2cc(OCc3ccccc3)ccc12)[C@@H]1CSC(c2cccnc2)N1 (some centres undefined),0.526,1.47,0.0929
CN(C)C(=O)n1cc(C(=O)[C@@H]2CSC(c3cccnc3)N2)c2ccc(C(=O)c3ccccc3)cc21 (some centres undefined),0.521,–,–
CN(C)C(=O)n1cc(C(=O)[C@@H]2CSC(c3cccnc3)N2)c2ccc(-c3ccccc3)cc21 (some centres undefined),1.12,0.808,–
Cc1nnc2n1-c1sc(CCC(=O)N3CCOCC3)cc1C(c1ccccc1Cl)=NC2 [APAFANT],22.3,2.2,–
CN(C(=O)n1cc(C(=O)[C@@H]2CSC(c3cccnc3)N2)c2ccccc21)c1ccccc1 (some centres undefined),–,–,1.93
COC(=O)n1cc(C(=O)[C@@H]2CSC(c3cccnc3)N2)c2ccccc21 (some centres undefined),5.19,1.97,–
O=C(O)C(F)(F)F.O=C(c1c[nH]c2c(OCc3ccccc3)cccc12)[C@@H]1CSC(c2cccnc2)N1 (some centres undefined),1.41,6.98,0.571
CCS(=O)(=O)n1cc(C(=O)[C@@H]2CSC(c3cccnc3)N2)c2ccccc21 (some centres undefined),–,–,1.59
CC(C)(C)NC(=O)n1cc(C(=O)[C@@H]2CSC(c3cccnc3)N2)c2ccccc21 (some centres undefined),6.28,–,–
O=C(c1c[nH]c2cc(-c3ccccc3)ccc12)[C@@H]1CSC(c2cccnc2)N1 (some centres undefined),2.3,5.39,–
O=C(c1ccccc1)c1cccc(NC(=O)c2ccn3c2CSC3c2cccnc2)c1 (centres undefined),2.27,4.07,–
O=C(c1c[nH]c2cc(Br)ccc12)[C@@H]1CSC(c2cccnc2)N1 (some centres undefined),1.07,–,–
Cc1c(C(=O)[C@@H]2CSC(c3cccnc3)N2)c2ccccc2n1C(=O)OC(C)(C)C.O=C(O)C(=O)O (some centres undefined),–,0.873,–
CCN(CC)C(=O)n1cc(C(=O)[C@@H]2CSC(c3cccnc3)N2)c2ccccc21 (some centres undefined),0.616,0.52,–
O=C(C1CSC(c2cccnc2)N1)n1ccc2cc(OCc3ccccc3)ccc21 (centres undefined),–,–,1.95
